Measurements from US20210244704A1, “Cabazitaxel in mCRPC Patients Previously Treated with Docetaxel and Who Failed a Prior androgen signaling targeted inhibitor Agent” (SANOFI MATURE IP, priority 2019, published 2021).
Marks after values point to notes of the source that are not given here.

Experiments:
HRQL of mCRPC patients = experiment: Same clinical study: health-related quality of life, FACT-P questionnaire; format: in vivo, human
Procedure: Pain response was defined as a decrease≥30% from baseline in BPI-SF pain intensity score with no increased analgesic use. HRQL was assessed using the Functional Assessment of Cancer Therapy-Prostate (FACT-P) questionnaire. Pain intensity was defined using item 3 of the validated Brief Pain Inventory-Short Form (BPI-SF), which rates pain at its worst in the last 24 hours on a scale of 0 (no pain) to 10 (worst imaginable pain). Analgesic consumption was reported by local investigators and coded by the World Health Organization's analgesic ladder (0=no analgesic; 1=non-opioid analgesics; 2=opioid analgesics for moderate pain; 3=opioids for severe pain). […] A clinically meaningful improvement or deterioration of total FACT-P score was defined as a difference of ±10 points from baseline. Clinically meaningful changes in HRQL and pain response were confirmed at two consecutive evaluations≥3 weeks apart during the on-treatment period. Survival curves were generated by Kaplan-Meier estimates.
Time to deterioration was defined on two consecutive evaluations, ≥3 weeks apart as follows: • decrease of ≥10 points from baseline for FACT-P total score • decrease of ≥3 points from baseline for physical, social, emotional and functional well-being • decrease of ≥2 points from baseline for the pain PCS subscale • decrease of ≥9 points from baseline for FACT-G total and FACT-P TOI subscales
FACT-P, a validated 39-item questionnaire evaluated 5 wellbeing domains: physical (PWB, 0-28), social and family (SWB, 0-28), emotional (EWB, 0-24), functional (FWB, 0-28), and prostate specific (PCS, 0-48).
Total FACT-P score (PWB+SWB+EWB+FWB+PCS; 0-156), total FACT-G score (PWB+SWB+EWB+FWB; 0-108), FACT-P trial outcome index (PWB+FWB+PCS; 0-104), and PCS-Pain were calculated. The FACT-P overall score ranges from 0 to 156, higher values indicating a higher HRQL
To control for type I error due to multiple comparisons, a hierarchical testing procedure was applied for the primary and key secondary end points. […] Further tests were stopped once a comparison was found not statistically significant at two-sided alpha level of 0.05. Descriptive statistics for FACT-P and EQ-5D-5L scores were provided for all cycles for which the number of evaluable patients reached ≥20% of the PRO population. For qualitative parameters, proportions of patients with deterioration, no change, and improvement were provided.
The comparison of changes from baseline on PROs was analyzed using a mixed linear repeated measures model where treatment is a fixed effect variable and subject is a random effect variable. Stratification variables were included in the model as covariates as well as the interaction treatment visit. The least square means by treatment group with the corresponding 95% CI obtained from the mixed model were presented graphically. No adjustments for multiplicity were made.
Compliance with the planned assessment schedule was calculated at baseline and for each treatment cycle as the proportion of patients still receiving study treatment at this time point. No formal imputation for missing data was carried out and reasons for missing data were not centrally recorded. FACT-P total score was evaluable when >80% of questions were answered. For individual FACT-P subscales, a score was evaluable when >50% of the questions in the subscale domain were answered. If <50% of the questions were missing in any FACT-P subscale, the subscale score could be imputed by prorated subscale scores using the following formula: Prorated subscale score=[Sum of question scores]×[N of questions in subscale][…][N of questions answered].

[1] = tested on: patients with mCRPC who progressed during or after docetaxel; settings: every 3 weeks with prednisone 10 mg daily; cabazitaxel 25 mg/m^2, mitoxantrone 12 mg/m^2; cited from earlier work
[2] = cabazitaxel vs abiraterone or enzalutamide
[3] = cabazitaxel vs abiraterone or enzalutamide, all cycles
[4] = cabazitaxel vs abiraterone or enzalutamide, end of treatment visit

Structure (SMILES): CO[C@H]1C(=O)[C@]2(C)[C@@H](OC)C[C@H]3OC[C@@]3(OC(C)=O)[C@H]2[C@H](OC(=O)c2ccccc2)[C@]2(O)C[C@H](OC(=O)[C@H](O)[C@@H](NC(=O)OC(C)(C)C)c3ccccc3)C(C)=C1C2(C)C [Cabazitaxel, 4α-acetoxy-2α-benzoyloxy-5β,20-epoxy-1p-hydroxy-7β,10β-dimethoxy-9-oxo-11-taxen-13α-yl (2R,3S)-3-tert-butoxycarbonylamino-2-hydroxy-3-phenylpropionate]
- Deterioration in FACT-P from baseline (HRQL of mCRPC patients): 22.2%
- Emotional well-being, Kaplan-Meier probability of no deterioration at 3 months (HRQL of mCRPC patients; 3 months): 91.1
- FACT-G total, Kaplan-Meier probability of no deterioration at 3 months (HRQL of mCRPC patients; 3 months): 82.3
- FACT-P total, Kaplan-Meier probability of no deterioration at 3 months (HRQL of mCRPC patients; 3 months): 86.2
- Functional well-being, Kaplan-Meier probability of no deterioration at 3 months (HRQL of mCRPC patients; 3 months): 73.7
- Pain-related subscale, Kaplan-Meier probability of no deterioration at 3 months (HRQL of mCRPC patients; 3 months): 81.6
- Physical well-being, Kaplan-Meier probability of no deterioration at 3 months (HRQL of mCRPC patients; 3 months): 76.0
- Prostate-specific concerns, Kaplan-Meier probability of no deterioration at 3 months (HRQL of mCRPC patients; 3 months): 83.6
- Social or family well-being, Kaplan-Meier probability of no deterioration at 3 months (HRQL of mCRPC patients; 3 months): 78.7
- Trial outcome index, Kaplan-Meier probability of no deterioration at 3 months (HRQL of mCRPC patients; 3 months): 86.1
- FACT-P total, deterioration events (HRQL of mCRPC patients; Table 6): 29.6%
- Emotional well-being, time to deterioration HR (HRQL of mCRPC patients; [2]): 0.46**
- FACT-G total, time to deterioration HR (HRQL of mCRPC patients; [2]): 0.71
- FACT-P total, time to deterioration HR (HRQL of mCRPC patients; [2]): 0.72
- Functional well-being, time to deterioration HR (HRQL of mCRPC patients; [2]): 0.81
- Pain-related subscale, time to deterioration HR (HRQL of mCRPC patients; [2]): 0.74
- Physical well-being, time to deterioration HR (HRQL of mCRPC patients; [2]): 0.82
- Prostate-specific concerns, time to deterioration HR (HRQL of mCRPC patients; [2]): 0.68
- Social or family well-being, time to deterioration HR (HRQL of mCRPC patients; [2]): 1.03
- Trial outcome index, time to deterioration HR (HRQL of mCRPC patients; [2]): 0.65
- Pain-related subscale score change from baseline, least squares mean difference (HRQL of mCRPC patients; [3]): +1.12 to +2.26
- Social or family well-being change from baseline, mean difference (HRQL of mCRPC patients; [3]): −0.37 to −2.25
- FACT-P total score change from baseline, mean difference (HRQL of mCRPC patients; [4]): +4.58
- Pain-related subscale score change from baseline, mean difference (HRQL of mCRPC patients; [4]): +0.62
- Social or family well-being change from baseline, mean difference (HRQL of mCRPC patients; [4]): −0.94
- FACT-P total score change from baseline, least squares mean difference (HRQL of mCRPC patients; cabazitaxel vs abiraterone or enzalutamide, until Cycle 5): +2.67 to +5.21
- Emotional well-being, deterioration events (HRQL of mCRPC patients; human, in vivo): 16.7%
- Emotional well-being, deterioration events n/nT (HRQL of mCRPC patients; human, in vivo): 18/108
- Emotional well-being, median time to deterioration (HRQL of mCRPC patients; human, in vivo): NE (NE-NE)
- FACT-G total, deterioration events (HRQL of mCRPC patients; human, in vivo): 27.8%
- FACT-G total, deterioration events n/nT (HRQL of mCRPC patients; human, in vivo): 30/108
- FACT-G total, median time to deterioration (HRQL of mCRPC patients; human, in vivo): 14.8 (8.8-NE) months
- FACT-P total, deterioration events n/nT (HRQL of mCRPC patients; human, in vivo): 32/108
- FACT-P total, median time to deterioration (HRQL of mCRPC patients; human, in vivo): 14.8 (6.3-NE) months
- Functional well-being, deterioration events (HRQL of mCRPC patients; human, in vivo): 36.1%
- Functional well-being, deterioration events n/nT (HRQL of mCRPC patients; human, in vivo): 39/108
- Functional well-being, median time to deterioration (HRQL of mCRPC patients; human, in vivo): NE (5.9-NE)
- Improvement in total FACT-P score from baseline (HRQL of mCRPC patients; human, in vivo): 25.0%
- Pain-related subscale, deterioration events (HRQL of mCRPC patients; human, in vivo): 33.3%
- Pain-related subscale, deterioration events n/nT (HRQL of mCRPC patients; human, in vivo): 36/108
- Pain-related subscale, median time to deterioration (HRQL of mCRPC patients; human, in vivo): 10.4 (8.5-NE) months
- Physical well-being, deterioration events (HRQL of mCRPC patients; human, in vivo): 36.1%
- Physical well-being, deterioration events n/nT (HRQL of mCRPC patients; human, in vivo): 39/108
- Physical well-being, median time to deterioration (HRQL of mCRPC patients; human, in vivo): 14.8 (4.9-NE) months
- Prostate-specific concerns, deterioration events (HRQL of mCRPC patients; human, in vivo): 32.4%
- Prostate-specific concerns, deterioration events n/nT (HRQL of mCRPC patients; human, in vivo): 35/108
- Prostate-specific concerns, median time to deterioration (HRQL of mCRPC patients; human, in vivo): 14.8 (9.8-NE) months
- Social or family well-being, deterioration events (HRQL of mCRPC patients; human, in vivo): 32.4%
- Social or family well-being, deterioration events n/nT (HRQL of mCRPC patients; human, in vivo): 35/108
- Social or family well-being, median time to deterioration (HRQL of mCRPC patients; human, in vivo): 14.8 (7.9-14.8) months
- Trial outcome index, deterioration events (HRQL of mCRPC patients; human, in vivo): 26.9%
- Trial outcome index, deterioration events n/nT (HRQL of mCRPC patients; human, in vivo): 29/108
- Trial outcome index, median time to deterioration (HRQL of mCRPC patients; human, in vivo): 14.8 (8.5-NE) months
- FACT-P total, median time to deterioration (HRQL of mCRPC patients; human, in vivo, listed as cabazitaxel): 14.8 months
- Improvement in total FACT-P score from baseline (HRQL of mCRPC patients; ±10 points, confirmed): 27 patients
- Median overall survival, TROPIC trial [1]: 15.1 months
